Data on 1 compound can be found in publication PMC4129416, “YLT192, a Novel, Orally Active Bioavailable Inhibitor of VEGFR2 Signaling with Potent Antiangiogenic Activity and Antitumor Efficacy in Preclinical Models” (Scientific Reports, 2014).

Usually IC50 stands for the concentration that gives 50% inhibition. A higher IC50 goes with weaker potency in that assay.

SMILES strings stand for the structures.

In assay [1] the test system is LS147T. Kind of assay: Inhibition of tumor cell growth. Type of assay: cell-based. The note with it: human colorectal carcinoma, 48 hour treatment, means ± SD, n=3. The source says: (§1) Data are means ± SD, n=3.
(§2) cell line cell type IC50(μM) […]

In assay [2] the test system is MV4-11. Briefly: Inhibition of tumor cell growth. The note with it: MV4-11, human acute myeloid leukemia; 48 hour treatment; means ± SD, n=3. It is filed as cell-based.
Excerpt: as §1, §2

Assay [3] deals with SMMC-7721. Kind of assay: Inhibition of tumor cell growth. Type of assay: cell-based. The note with it: SMMC-7721, human hepatocellular carcinoma; 48 hour treatment; means ± SD, n=3.
Excerpt: as §1, §2

Assay [4] relates to MDA-MB-231. Kind of assay: Inhibition of tumor cell growth. It is filed as cell-based. The note with it: MDA-MB-231, human mammary carcinoma; 48 hour treatment; means ± SD, n=3.
Excerpt: as §1, §2

For assay [5], the system named is SW620. Briefly: Inhibition of tumor cell growth. The note with it: SW-620; SW620, human colorectal carcinoma; 48 hour treatment; means ± SD, n=3. Type of assay: cell-based.
Excerpt: as §1, §2

The subject of assay [6] is SPC-A1. Kind of assay: Inhibition of tumor cell growth. Type of assay: cell-based. The note with it: SPCA1; SPC-A1, human lung cancer; 48 hour treatment; means ± SD, n=3.
Excerpt: as §1, §2

Assay [7] has as its system MCF-7. Briefly: Inhibition of tumor cell growth. It is filed as cell-based. The note with it: MCF7; MCF-7, human mammary carcinoma; 48 hour treatment; means ± SD, n=3.
Excerpt: as §1, §2

Assay [8] has as its system Hela. Briefly: Inhibition of tumor cell growth. Type of assay: cell-based. The note with it: human epithelial carcinoma, 48 hour treatment, means ± SD, n=3.
Excerpt: as §1, §2

Assay [9] deals with BEL7402. Briefly: Inhibition of tumor cell growth. It is filed as cell-based. The note with it: Bel-7402; BEL7402, human hepatocellular carcinoma; 48 hour treatment; means ± SD, n=3.
Excerpt: as §1, §2

In assay [10] the test system is SKOV-3. Kind of assay: Inhibition of tumor cell growth. The note with it: SK-OV-3; SKOV-3, human ovarian carcinoma; 48 hour treatment; means ± SD, n=3. It is filed as cell-based.
Excerpt: as §1, §2

Assay [11] deals with A431. Briefly: Inhibition of tumor cell growth. Type of assay: cell-based. The note with it: A-431; A431, human pidermoid carcinoma; 48 hour treatment; means ± SD, n=3.
Excerpt: as §1, §2

In assay [12] the test system is HUVEC. Kind of assay: Transwell invasion assay. It is filed as cell-based, human. The note with it: various concentrations; 24 hours; concentration-dependent. An excerpt:
Cell migration is essential for ECs in angiogenesis and for cancer cells in tumor growth and metastasis. […] Cell invasion is essential for EC in angiogenesis, so we performed transwell assays to evaluate the ability of HUVEC to pass through the Matrigel and membrane barriers of the transwell in the presence of various concentrations of YLT192 or vehicle.
Figure 2 Effects of YLT192 on HUVECs proliferation, migration, invasion and tube formation. […] Cells were wounded by the pipette and then treated with various concentrations of compounds for 24 hours. Migrated cells were quantified by manual counting (50×). […] The bottom chambers of the transwells were filled with 600 μL EGM2 containing various growth factors while the top chambers were seeded with 4 × 10^4 HUVECs in EBM2 and treated with different concentrations of compounds for 24 hours. Cells invaded through the membrane were stained and quantified (100×). […] HUVECs were seeded on Matrigel layer and treated with different concentrations of compounds. HUVECs tube formation was assessed 6 hours later (50×). One representative experiment of three is shown. […]
HUVECs were allowed to grow into full confluence in 24-well plates and then wounded by scratching with pipette tips and washed with PBS. […] Images were taken using a ZEISS digital microscope and invading cells were counted by manual counting. […]

For assay [13], the system named is alginate beads containing CT26 tumor cells. Briefly: Alginate-encapsulated tumor cell assay. The note with it: 100 mg/kg oral once daily, 14 days, vs vehicle. It is filed as in vivo, mice. The method, then: Figure 3 YLT192 inhibited angiogenesis in vivo. (A) Fluorescent images of 30 hpf zebrafish treated with vehicle or concentrations of YLT192. ISV growth was inhibited by YLT192. One representative experiment of three is shown. Data are means ± SEM (n = 10 per group), *P < 0.05, **P < 0.01. Scale bars represent 100 μm. […] Frozen sections of HCT116 tumors were tested by immunohistochemistry analysis with anti-CD31 antibody. Representative images of the tumor vasculature from vehicle and YLT192 treated mice were shown. The fields were averaged in each tumor, and the averages for each animal were used to give the final mean ± SD (n = 6 mice per group). *P < 0.05, **P < 0.01. Scale bars represent 100 μm. […] Alginate beads containing 5 × 10^4 CT26 cells were implanted s.c. into the backs of mice. Mice were then orally treated with YLT192 or vehicle once daily. Beads were surgically removed 14 days later and FITC-dextran was quantified. […] Data are means ± SD (n = 6 mice per group), *P < 0.05, **P < 0.01. Scale bars represent 500 μm.
To determine whether YLT192 could inhibit angiogenesis induced by tumor cells in vivo, we did the alginate-encapsulated tumor cell assay as described previously. […] The content of FITC-dextran in the beads was quantified as described previously.

With `CNC(=O)c1cc(Oc2ccc(NC(=O)c3cccc(OC)c3)cc2)ccn1` [YLT192], the IC50 in assay [1] was 9 ± 1.1 µM; in assay [2] it was 21.9 ± 1.9 µM; in [3] it was 12.1 ± 1.6 µM; in assay [4], 11.9 ± 2.1 µM; in assay [5], 7.9 ± 1.7 µM; in [6], 16.4 ± 1.4 µM. In addition, the IC50 in assay [7] came to 16.8 ± 1.7 µM; in assay [8] it was 18.9 ± 2.4 µM; in [9] it was 11.3 ± 1.1 µM; in assay [10], 8.2 ± 1.5 µM; in [11], 7.7 ± 0.9 µM. Besides, the “invasion of HUVECs in transwell assay” value in assay [12] was “significantly inhibited”. Besides, in assay [13], the “reduction of accumulation of FITC-dextran” value was 66%.
